Molecular target: T1, glutathione S-transferase (GST)-linked full-length human Syk protein (Homo sapiens, UniProt P43405)
T1 construct: glutathione S-transferase (GST)-linked full-length human Syk protein; purchased Carna Biosciences; host or cells: Baculovirus expression system
Assay: Syk enzyme assay
Assay type: biochemical
Settings: 0.83 nM Syk, time-resolved fluorescence; read-out: IC50 of Syk-inhibitory activity
Protocol: A glutathione S-transferase (GST)-linked full-length human Syk protein (Carna Biosciences), which had been generated using a Baculovirus expression system, was used in the Syk enzyme assay.
7.5 μl of a reaction solution (0.83 nM Syk, 20 mM HEPES, 10 mM MgCl2, 50 mM NaCl, 2 mM DTT, 0.05% BSA, pH 7.0) containing a Syk protein and a predetermined concentration of a test compound was shaken for 2 minutes, and it was then left at rest at room temperature for 13 minutes. Thereafter, 0.5 μM substrate peptide (Biotin-[…]-NH2) and 5 μL of a solution containing 67.5 μM ATP were added to the reaction solution, and the obtained mixture was then shaken for 2 minutes. The reaction solution was further left at rest at room temperature for 40 minutes, so as to carry out an enzyme reaction.
Thereafter, 50 μL of a reaction termination solution [60 nM APC-SA, 0.45 μg/mL Eu-PT66, 30 mM HEPES (pH 7.0), 150 mM KF, 30 mM EDTA, 0.15% BSA, 0.075% Tween20] containing Allophycocyanin-Streptavidin (APC-SA; PerkinElmer) and an Eu-W1024-labeled anti-phosphotyrosine PT66 antibody (Eu-PT66; PerkinElmer) was added to the reaction solution to terminate the enzyme reaction. At the same time, the reaction solution was left at rest at room temperature for 1 hour, so as to carry out an antigen-antibody reaction. Thereafter, using EnVision (PerkinElmer), the level of time-resolved fluorescence was measured at 615 nm and 665 nm, so that the phosphorylation of the substrate peptide was measured.
The following are used in Table 5 to denote standards for evaluating IC50 of Syk-inhibitory activity. • A: Up to 10 nM • B: 10 to 50 nM • C: 50 to 100 nM

Row | SMILES | IC50 [µM]
1 | COc1nn(C)c2ccc(Nc3nc(N[C@H](C(C)C)[C@H](C)N)c(F)cc3C(N)=O)cc12 [Example 2-81, 6-(((2S,3R)-2-amino-4-methylpentan-3-yl)amino)-5-fluoro-2-((3-methoxy-1-methyl-1H-indazol-5-yl)amino)nicotinamide] | 0.01 to 0.05
2 | CC(C)C[C@H](CN)Nc1nc(Nc2ccc3c(c2)c(N(C)C)nn3C)c(C(N)=O)cc1F [Example 2-86, (R)-6-((1-amino-4-methylpentan-2-yl)amino)-2-((3-(dimethylamino)-1-methyl-1H-indazol-5-yl)amino)-5-fluoronicotinamide] | < 0.01
3 | CCCC[C@@H](Nc1nc(Nc2ccc3c(c2)c(N(C)C)nn3C)c(C(N)=O)cc1F)[C@H](C)N [Example 2-90, 6-(((2S,3R)-2-aminoheptan-3-yl)amino)-2-((3-(dimethylamino)-1-methyl-1H-indazol-5-yl)amino)-5-fluoronicotinamide] | 0.01 to 0.05
4 | CC[C@H](N)[C@@H](CC)Nc1nc(Nc2ccc3c(c2)c(N(C)C)nn3C)c(C(N)=O)cc1F [Example 2-92, 6-(((3R,4S)-4-aminohexan-3-yl)amino) 2-((3-(dimethylamino)-1-methyl-1H-indazol-5-yl)amino)-5-fluoronicotinamide] | 0.01 to 0.05
5 | CCn1ncc2c(Nc3nc(N[C@H](C(C)C)[C@H](C)N)c(F)cc3C(N)=O)cccc21 [Example 2-97, 6-(((2S,3R)-2-amino-4-methylpentan-3-yl)amino)-2-((1-ethyl-1H-indazol-4-yl)amino)-5-fluoronicotinamide] | 0.05 to 0.1
6 | CCCC[C@@H](Nc1nc(Nc2cccc3c2cnn3CC)c(C(N)=O)cc1F)[C@H](C)N [Example 2-99, 6-(((2S,3R)-2-aminoheptan-3-yl)amino)-2-((1-ethyl-1H-indazol-4-yl)amino)-5-fluoronicotinamide] | < 0.01
7 | CC(C)[C@@H](Nc1nc(Nc2ccc3cnn(C)c3c2)c(C(N)=O)cc1F)[C@H](C)N [Example 2-102, 6-(((2S,3R)-2-amino-4-methylpentan-3-yl)amino)-5-fluoro-2-((1-methyl-1H-indazol-6-yl)amino)nicotinamide] | 0.05 to 0.1
8 | CCn1ncc2ccc(Nc3nc(N[C@H](C(C)C)[C@H](C)N)c(F)cc3C(N)=O)cc21 [Example 2-103, 6-(((2S,3R)-2-amino-4-methylpentan-3-yl)amino)-2-((1-ethyl-1H-indazol-6-yl)amino)-5-fluoronicotinamide] | 0.05 to 0.1
9 | CC(C)[C@@H](Nc1nc(Nc2ccc3c(cnn3C)c2)c(C(N)=O)cc1F)[C@H](C)N [Example 2-104, 6-(((2S,3R)-2-amino-4-methylpentan-3-yl)amino)-5-fluoro-2-((1-methyl-1H-indazol-5-yl)amino)nicotinamide] | 0.05 to 0.1
10 | CCn1ncc2cc(Nc3nc(N[C@H](C(C)C)[C@H](C)N)c(F)cc3C(N)=O)ccc21 [Example 2-105, 6-(((2S,3R)-2-amino-4-methylpentan-3-yl)amino)-2-((1-ethyl-1H-indazol-5-yl)amino)-5-fluoronicotinamide] | 0.01 to 0.05
11 | COc1cc(Nc2nc(N[C@H](C(C)C)[C@H](C)N)c(F)cc2C(N)=O)ccn1 [Example 2-107, 6-(((2S,3R)-2-amino-4-methylpentan-3-yl)amino)-5-fluoro-2-((2-methoxypyridin-4-yl)amino)nicotinamide] | 0.05 to 0.1
12 | COc1cc(Nc2nc(N[C@H](C(C)C)[C@H](C)N)c(F)cc2C(N)=O)cc(OC)n1 [Example 2-108, 6-(((2S,3R)-2-amino-4-methylpentan-3-yl)amino)-2-((2,6-dimethoxypyridin-4-yl)amino)-5-fluoronicotinamide] | 0.05 to 0.1
13 | CC(C)[C@@H](Nc1nc(Nc2cncc(C3CC3)c2)c(C(N)=O)cc1F)[C@H](C)N [Example 2-111, 6-(((2S,3R)-2-amino-4-methylpentan-3-yl)amino)-2-((5-cyclopropylpyridin-3-yl)amino)-5-fluoronicotinamide] | 0.01 to 0.05
14 | COc1ncc(Nc2nc(N[C@H](CC(C)C)[C@H](C)N)c(F)cc2C(N)=O)cc1-n1nccn1 [Example 2-112, 6-(((2S,3R)-2-amino-5-methylhexan-3-yl)amino)-5-fluoro-2-((6-methoxy-5-(2H-1,2,3-triazol-2-yl)pyridin-3-yl)amino)nicotinamide] | 0.01 to 0.05
15 | COCCOc1ncc(Nc2nc(N[C@H](C3CC3)[C@H](C)N)c(F)cc2C(N)=O)cc1F [Example 2-115, 6-(((1R,2S)-2-amino-1-cyclopropylpropyl)amino)-5-fluoro-2-((5-fluoro-6-(2-methoxyethoxy)pyridin-3-yl)amino)nicotinamide] | 0.01 to 0.05
16 | CC[C@@H](Nc1nc(Nc2cnc(OCCOC)c(F)c2)c(C(N)=O)cc1F)[C@H](C)N [Example 2-117, 6-(((2S,3R)-2-aminopentan-3-yl)amino)-5-fluoro-2-((5-fluoro-6-(2-methoxyethoxy)pyridin-3-yl)amino)nicotinamide] | 0.05 to 0.1
17 | CCC[C@@H](Nc1nc(Nc2cnc(OCCOC)c(F)c2)c(C(N)=O)cc1F)[C@H](C)N [Example 2-118, 6-(((2S,3R)-2-aminohexan-3-yl)amino)-5-fluoro-2-((5-fluoro-6-(2-methoxyethoxy)pyridin-3-yl)amino)nicotinamide] | 0.05 to 0.1
18 | COCCOc1ncc(Nc2nc(N[C@H](CC(C)C)[C@H](C)N)c(F)cc2C(N)=O)cc1F [Example 2-119, 6-(((2S,3R)-2-amino-5-methylhexan-3-yl)amino)-5-fluoro-2-((5-fluoro-6-(2-methoxyethoxy)pyridin-3-yl)amino)nicotinamide] | 0.01 to 0.05
19 | COC[C@@H](Nc1nc(Nc2ccc3c(c2)c(N(C)C)nn3C)c(C(N)=O)cc1F)[C@H](C)N [Example 2-120, 6-(((2S,3S)-3-amino-1-methoxybutan-2-yl)amino)-2-((3-(dimethylamino)-1-methyl-1H-indazol-5-yl)amino)-5-fluoronicotinamide] | < 0.01
20 | COCCOc1ncc(Nc2nc(N[C@H](CC(C)C)[C@H](C)N)c(F)cc2C(N)=O)cc1-n1nccn1 [Example 2-140, 6-(((2S,3R)-2-amino-5-methylhexan-3-yl)amino)-5-fluoro-2-((6-(2-methoxyethoxy)-5-(2H-1,2,3-triazol-2-yl)pyridin-3-yl)amino)nicotinamide] | 0.01 to 0.05
21 | COc1nn(C)c2c(F)cc(Nc3nc(N[C@H](C4CC4)[C@H](C)N)c(F)cc3C(N)=O)cc12 [Example 2-154, 6-(((1R,2S)-2-amino-1-cyclopropylpropyl)amino)-5-fluoro-2-((7-fluoro-3-methoxy-1-methyl-1H-indazol-5-yl)amino)nicotinamide] | < 0.01
22 | CCCC[C@@H](Nc1nc(Nc2cc(F)c3c(c2)c(OC)nn3C)c(C(N)=O)cc1F)[C@H](C)N [Example 2-155, 6-(((2S,3R)-2-aminoheptan-3-yl)amino)-5-fluoro-2-((7-fluoro-3-methoxy-1-methyl-1H-indazol-5-yl)amino)nicotinamide] | < 0.01
23 | COc1nn(C)c2c(F)cc(Nc3nc(N[C@H](CC(C)C)[C@H](C)N)c(F)cc3C(N)=O)cc12 [Example 2-156, 6-(((2S,3R)-2-amino-5-methylhexan-3-yl)amino)-5-fluoro-2-((7-fluoro-3-methoxy-1-methyl-1H-indazol-5-yl)amino)nicotinamide] | < 0.01

Source: patent US9051310B2, “Nicotinamide derivative or salt thereof” (FUJIFILM Corporation, priority 2011, dated 2015)
